Experimental data as given in US4912092A, “Methods for increasing extracellular adenosine and for stabilizing mast cells” (The Regents of the University of California, priority 1987, dated 1990).
“Also recorded” adds a separate entry of the source.

Legend:
[1] = test system: human splenic lymphoblast cell line (WI-L2); assay: Adenosine excretion by human lymphoblasts during ATP breakdown (2-deoxyglucose); format: cell-based
Method: (§1) The history and properties of the cell line have been described by Hershfield et al. in Science, Vol. 197, p. 1284, 1977.
(§2) Catabolism of cellular ATP stores was stimulated by adding either 2-deoxyglucose or a calcium ionophore. At various times, the amount of adenosine released by the cells into the supernatant, or the amount of nucleotides remaining in the cells, was determined by mixing 30 μl of chilled 4.4N perchloric acid with 300 μl of supernatants, or by adding 300 μl of chilled 0.4N perchloric acid to the cells collected as pellets and centrifuging the mixtures at 500×G for 10 minutes at 4° C. […] 1245, 1975. Following centrifugation at 1500×G for three minutes at 4° C., the aqueous phase is removed and frozen at -20° C. until assayed for adenosine, inosine, or for nucleotides. Adenosine was evaluated isocratically on a C-18 microBondapak reverse phase column equilibrated with 4 millimolar potassium phosphate, (pH 3.4):acetonitrile 60% in water (95:5 v/v) buffer. Adenosine elutes at 8-10 minutes, and its identity was confirmed by its sensitivity to adenosine deaminase and by spiking with adenosine standards. The extracted samples from the cell pellet were analyzed for nucleotides by high pressure liquid chromatography on a Whatman Partisil-10 (SAX) column equilibrated with 10 millimolar potassium phosphate, pH 3.78, and eluted with a linear gradient to a 0.25 molar potassium phosphate, 0.5 molar KCl, pH 3.45. […] Peaks were quantitated by comparison with high pressure liquid chromatography analysis of suitable standards.
Cells were grown to about 0.5×10^6 cells/ml (mid-log phase) in FIG. 2 and to about 1.0×10^6 cells/ml (early stationary phase) in FIGS. 7-9.

[2] = test system: HPRT+ neuroblastoma cells; assay: Adenosine excretion by ionophore-stimulated HPRT+ neuroblastoma cells; format: cell-based; conditions: for Concentration of Adenosine: HPRT+, AICA riboside 50 μM
Method: as §1, §2
(§3) To induce ATP catabolism, the growth medium was replaced by medium containing micromolar amounts of the calcium ionophore A23187 and 1.0 μM deoxycoformycin.

[3] = test system: HPRT- neuroblastoma cells; assay: Adenosine excretion by ionophore-stimulated HPRT- neuroblastoma cells; format: cell-based; conditions: for Concentration of Adenosine: HPRT-, AICA riboside 50 μM
Method: as §1, §2, §3

[4] = dog, in vivo, iv
From the text: Thirteen mongrel dogs were anesthetized with phenobarbital. […] C.V. Dis. 20; 55 (1977).

[5] = test system: inosine; assay: Venous inosine levels during coronary artery occlusion in dogs; format: in vivo, dog; conditions: over the 60-minute assay period (FIG. 5)
Method: Thirteen mongrel dogs were anesthetized with phenobarbital. […] C.V. Dis. 20; 55 (1977). […] Two of the surviving saline-treated animals fibrillated. […] The range was 4.4 to 100 μM.
That the increase in the levels of adenosine is due, at least in part, to a reduction in the amount of ATP that is converted to inosine was shown by analysis of venous blood from dogs in Example III for inosine levels.

[6] = test system: myocardial infarct; assay: Myocardial infarct size after tying off the left anterior descending coronary artery; format: in vivo, rat; conditions: bolus then osmotic mini-pump infusion, three weeks; p<0.05
From the text: The animals were continuously exposed by infusion of either AICA riboside in saline or saline using osmotic mini-pumps well known to those in the art. After three weeks, the rats were sacrificed and infarct size quantitated by planimarizing stained sections of fixed hearts.

[7] = test system: adenylosuccinase deficiency (autism); assay: Therapeutic trial in patients with adenylosuccinase deficiency (autism); format: in vivo, human
From the text: Following authorization, therapeutic trials with AICA riboside were started in two patients with adenylosuccinase deficiency (autism). […] On Day 55, both patients were briefly readmitted for clinical, biochemical and psychiatric evaluation. […] Treatment was maintained until Day 71, and arrested at that date.

[8] = test system: Mouse bone marrow-derived mast cells; format: cell-based; conditions: 100 micromolar, A23187 at 1 μg/ml; 28.8% in its absence
Method: By preventing mast cell degranulation, it is possible to prevent or control a patient's allergic response. Bone marrow obtained from Balb/C mice femurs was cultured in a 1:1 mixture of Razin media and conditioned media, produced by co-culturing splenocytes from C57B1/6J and C3H mice in the presence of Concanavalin A as described by Razin et al. in the Proc. Natl. Acad. Sci. USA 28: 2559-2561, 1981. After weekly passaging and at least 15 days in tissue culture, the resulting cells were 90% pure mast cells and 95% viable as assessed by Trypan blue exclusion. Cells exposed to ribavirin in culture were washed three times prior to use in experiments. Parallel cultures of cells grown in media alone were used as controls for pharmacologically manipulated mast cells. Cell growth was assessed by counting cells at particular time points and comparing actual numbers of ribavirin-treated cells to numbers of cells grown in media alone.
β-hexosaminidase was chosen as a representative granule-associated, preformed mast cell mediator because it is easily quantitated, and its release nearly identically parallels that of histamine. Mouse bone marrow-derived mast cells were centrifuged at 200×g for 5 minutes, washed three times in Tyrode's buffer lacking divalent cations, sensitized for 30 minutes at 37° C. with anti-DNP ([…]) IgE (1 μg/10^6 cells) and challenged with either DNP-BSA antigen (175 ng/3×10^5 cells) or A23187 (10 μg/ml/3×10^5 cells) in 400 μl of complete Tyrode's buffer for 10 minutes at 37° C. Reaction mixtures were centrifuged at 200×g for 10 minutes, and supernatant and pellet β-hexosaminidase concentrations were assayed by the hydrolysis of p-nitrophenyl-β-D-glucosamide as described in Schwartz et al. in J. Immunol. […] Spontaneous β-hexosaminidase release was determined in unchallenged cells. The net % of β-hexosaminidase released is defined as follows: [formula] where [β-hex] is β-hexosaminidase and super. is supernatant. When exogenous adenosine was present in reaction mixtures, it was added simultaneously with the secretagogue.

[9] = test system: isuprel-induced arrhythmias; assay: Isoproterenol (isuprel)-induced arrhythmias; format: in vivo, rat; conditions: 1000 mg/kg intraperitoneally
Method: Five minutes later both animals were anesthetized with 330 mg/kg of chloral hydrate injected intraperitoneally. Then a single EKG lead was attached to each rat for simultaneous recording of the paired rats' electrocardiograms. To produce arrhythmia, each rat was injected subcutaneously with isuprel […].
Beginning 30 minutes after isuprel introduction, the electrocardiograph recording paper speed was run (5 cm/sec) for 10 minutes to count the arrhythmic beats of both animals.

[10] = dog, in vivo
Method: Thirteen mongrel dogs were anesthetized with phenobarbital. The anterior coronary vein was cannulated and a blood sample was collected into 2N perchloric acid. […] Regional myocardial blood flow was measured within 15 μm radiolabelled spheres infused into the left atzium at 5 and 60 minutes during the ischemic period, as described by Heymann et al. in Prog. […] The electrocardiogram and arterial pressure were monitored throughout the period of ischemia.

[11] = after two months of continuous administration

NC(=O)c1ncn([C@@H]2O[C@H](CO)[C@@H](O)[C@H]2O)c1N [AICA riboside, 5-amino-4-imidazolecarboxamide riboside]
adenosine release from lymphoblasts ([1]; 48-hour pretreatment, 100-500 micromolar (FIG. 2)): enhances adenosine release
adenosine excreted ([1]; 48-hour pretreatment, 500 micromolar AICA riboside, about 1.4 without drug): about 2.3 nanomoles of adenosine/10^6 WI-L2 cells
adenosine release from lymphoblasts ([1]; 18 hours preincubation before 2-deoxyglucose exposure (FIG. 7)): enhanced adenosine release
adenosine release from lymphoblasts ([1]; three-hour preincubation and four-hour incubation during 2-deoxyglucose treatment (FIGS. 8, 9)): increased adenosine release
adenosine secreted by treated cells versus control cells ([2]; 50 μM AICA riboside, A23187 and 1.0 μM deoxycoformycin): at least twofold more adenosine than control cells
Concentration of Adenosine ([2]; ionophore 0 μg/ml): < 0.01 µM
Concentration of Adenosine ([2]; ionophore 10 μg/ml, control 0.329): 0.698 µM
Concentration of Adenosine ([3]; ionophore 0 μg/ml): < 0.01 µM
Concentration of Adenosine ([3]; ionophore 10 μg/ml, control 0.124): 0.513 µM
correction of the twofold lower adenosine secretion of HPRT-deficient cells ([3]; pretreatment): can be corrected by pretreatment
concentration [4]: 27.2 µM
inosine levels in venous blood versus saline [5]: more than twofold decrease
reduction of infarct size compared to saline-treated controls [6]: 33%
autistic features, older patient [7, 11]: did not show any modification
autistic features, younger sibling [7, 11]: clear-cut improvement
haematology and clinical chemistry parameters ([7]; before and during the trial treatment): normal
parent's description of both patients ([7]; during therapy): more pleasantly active and more easy to handle during therapy
clinical or biochemical side effects ([7]; oral 5 mg/kg/day up to 2×10 mg/kg/day): no adverse effects; also recorded: No clinical or biochemical side effects were observed
hexosaminidase released [8]: 17.6%
reduction in paroxysmal ventricular contractions [9]: 39%
ventricular fibrillation [9]: complete suppression
arterial blood gas-content and systemic venous granulocyte counts versus saline [10]: not significantly different
systemic arterial pressure and heart rate versus saline [10]: no significant differences
